# Data taken from ChEMBL document CHEMBL3046758, “Biological evaluation of novel 1,4-dithiine derivatives as potential antimicrobial agents” (Med Chem Res, 2011).
# Tests used:
# Coxsackievirus B2 = assay: Antiviral activity against Human coxsackievirus B2 infected African green monkey Vero76 cells assessed as reduction of virus-induced plaque reduction after 3 days by MTT assay; assay type: functional, organism-based; conditions: Enterovirus B, Vero 76, 72 h
# Poliovirus 1 = assay: Antiviral activity against Human poliovirus 1 strain Sabin infected African green monkey Vero76 cells assessed as reduction of virus-induced plaque reduction after 2 days by MTT assay; assay type: functional, organism-based; conditions: Enterovirus C, Vero 76, 48 h
# Candida albicans = assay: Antifungal activity against Candida albicans DSM 1386 after 24 to 48 hr by broth microdilution method; assay type: functional
# Pseudomonas aeruginosa = assay: Antibacterial activity against Pseudomonas aeruginosa DSM 1117 after 16 to 20 hr by broth microdilution method; assay type: functional
# Staphylococcus aureus = assay: Antibacterial activity against Staphylococcus aureus DSM 2569 after 16 to 20 hr by broth microdilution method; assay type: functional
# [1] = Cytotoxicity against Homo sapiens (human) MT4 cells containing integrated HTLV-1 genome after 96 hr by MTT assay; assay type: cell-based
# Aspergillus niger = assay: Antifungal activity against Aspergillus niger DSM 1988 after 24 to 48 hr by broth microdilution method; assay type: functional
# Vaccinia virus = assay: Antiviral activity against Vaccinia virus infected African green monkey Vero76 cells assessed as reduction of virus-induced plaque reduction after 3 days by MTT assay; assay type: functional, organism-based; conditions: Orthopoxvirus vaccinia, Vero 76, 72 h
# [2] = test system: Vesicular stomatitis virus; assay: Antiviral activity against Vesicular stomatitis virus infected african green monkey Vero76 cells assessed as reduction of virus-induced plaque reduction after 3 days by MTT assay; assay type: functional, organism-based; conditions: Vero 76, 72 h
# Human alphaherpesvirus 1 = assay: Antiviral activity against Human herpesvirus 1 infected African green monkey Vero76 cells assessed as reduction of virus-induced plaque reduction after 3 days by MTT assay; assay type: functional, organism-based; conditions: Human alphaherpesvirus 1, Vero 76, 72 h
# [3] = Selectivity index, ratio of CC50 for green monkey Vero76 cells to EC50 for HSV1; parameters: species or system Vero 76
# [4] = Cytotoxicity against Cricetinae BHK21 (hamster normal kidney fibroblast) cells after 48 to 120 hr by MTT assay; assay type: cell-based, Mesocricetus auratus, BHK-21; conditions: BHK21 cells (normal kidney fibroblasts)
# [5] = Cytotoxicity against Chlorocebus aethiops (African green monkey) Vero76 cells after 48 to 120 hr by MTT assay; assay type: cell-based, Vero 76; conditions: chlorocebus sabaeus
# [6] = Cytotoxicity against Bos taurus MDBK cells after 48 to 120 hr by MTT assay; assay type: cell-based; conditions: cattle
# [7] = test system: Bovine viral diarrhea virus 1; assay: Antiviral activity against Bovine viral diarrhea virus 1 infected MDBK cells assessed as inhibition of virus-induced cytopathogenicity after 3 to 4 days by MTT assay; assay type: functional, organism-based; conditions: Bovine viral diarrhea virus isolates and strains
# [8] = Selectivity index, ratio of CC50 for green monkey Vero76 cells to EC50 for Coxsackievirus B2; assay type: toxicity, cell-based, Vero 76; conditions: read-out: Ratio CC50/EC50
# [9] = test system: Mammalian orthoreovirus 1; assay: Antiviral activity against Mammalian orthoreovirus 1 infected BHK21 cells assessed as inhibition of virus-induced cytopathogenicity after 3 to 4 days by MTT assay; assay type: functional, organism-based; conditions: Mammalian orthoreovirus 1, BHK-21
# Yellow fever virus = assay: Antiviral activity against Yellow fever virus infected BHK21 cells assessed as inhibition of virus-induced cytopathogenicity after 3 to 4 days by MTT assay; assay type: functional, organism-based; conditions: BHK-21
# [10] = test system: Human immunodeficiency virus 1; assay: Antiviral activity against Human immunodeficiency virus 1 infected human MT4 cells assessed as inhibition of virus-induced cytopathogenicity after 4 days by MTT assay; assay type: functional, organism-based; conditions: Human immunodeficiency virus 1, MT4, 96 h
# [11] = Selectivity index, ratio of CC50 for green monkey Vero76 cells to EC50 for Yellow fever virus; assay type: toxicity, cell-based, Vero 76; conditions: read-out: Ratio CC50/EC50
SMILES,EC50 (Coxsackievirus B2),EC50 (Poliovirus 1),MIC (Candida albicans),MIC (Pseudomonas aeruginosa),MIC (Staphylococcus aureus),CC50 at 96 h [1],MIC (Aspergillus niger),EC50 (Vaccinia virus),EC50 [2],EC50 (Human alphaherpesvirus 1),Ratio CC50/EC50 [3],CC50 [4],CC50 [5],CC50 [6],EC50 [7],selectivity ratio [8],EC50 [9],EC50 (Yellow fever virus),EC50 [10],selectivity ratio [11]
C#C[C@@]1(O)[C@H](O)[C@@H](CO)O[C@H]1n1ccc(N)nc1=O [2'-ETHYNYL-D-CYTIDINE],23 µM,18 µM,,,,,,,,,,,,,,,,,,
O=C1C2=C(SCCS2)C(=O)N1CC(O)CN1CCN(c2ccccn2)CC1 (configuration not stated),,,> 100 µM,> 100 µM,> 100 µM,> 100 µM,> 100 µM,,,,,,,,,,,,,
O=C1C2=C(SCCS2)C(=O)N1CC(O)CN1CCCCC1 (configuration not stated),,,> 100 µM,> 100 µM,> 100 µM,> 100 µM,> 100 µM,,,,,,,,,,,,,
O=C1OC(=O)C2=C1SCCS2,,,> 100 µM,> 100 µM,> 100 µM,,> 100 µM,,,,,,,,,,,,,
COc1c(C)c2c(c(O)c1C/C=C(\C)CCC(=O)O)C(=O)OC2 [MYCOPHENOLIC ACID],,,,,,,,1.8 µM,,,,,,,,,,,,
O=C1C2=C(SCCS2)C(=O)N1CCCCN1CCN(c2ccccc2)CC1,66 µM,> 100 µM,> 100 µM,> 100 µM,> 100 µM,> 100 µM,> 100 µM,> 100 µM,> 100 µM,19 µM,>5.26,> 100 µM,> 100 µM,> 100 µM,> 100 µM,> 1.51,> 100 µM,88 µM,> 100 µM,> 1.14
O=C1C2=C(SCCS2)C(=O)N1CCCN1CCN(c2ccccc2O)CC1,,,,,,> 100 µM,,,,,,,,,,,,,,
O=C1C2=C(SCCS2)C(=O)N1CCCCN1CCN(c2ncccn2)CC1,,,,,,> 100 µM,,,,,,,,,,,,,,
O=C1NC(=O)C2=C1SCCS2,,,> 100 µM,> 100 µM,> 100 µM,> 100 µM,> 100 µM,,,,,,,,,,,,,
O=C1C2=C(SCCS2)C(=O)N1CCCN1CCN(c2ccc(F)cc2)CC1,20 µM,> 96 µM,> 100 µM,> 100 µM,> 100 µM,> 100 µM,> 100 µM,> 96 µM,> 96 µM,> 96 µM,,> 100 µM,96 µM,> 100 µM,> 100 µM,> 4.8,> 100 µM,52 µM,> 100 µM,> 1.92
CC(C)(C)NCC(O)CN1C(=O)C2=C(SCCS2)C1=O (configuration not stated),,,> 100 µM,> 100 µM,> 100 µM,> 100 µM,> 100 µM,,,,,,,,,,,,,
COc1ccccc1N1CCN(CC(O)CN2C(=O)C3=C(SCCS3)C2=O)CC1 (configuration not stated),> 100 µM,> 100 µM,> 100 µM,> 100 µM,> 100 µM,> 100 µM,> 100 µM,> 100 µM,> 100 µM,> 100 µM,,> 100 µM,> 100 µM,> 100 µM,> 100 µM,,> 100 µM,75 µM,> 100 µM,> 1.33
CN(C)CC(O)CN1C(=O)C2=C(SCCS2)C1=O (configuration not stated),,,> 100 µM,> 100 µM,> 100 µM,> 100 µM,> 100 µM,,,,,,,,,,,,,
COc1ccccc1N1CCN(CCCN2C(=O)C3=C(SCCS3)C2=O)CC1,,,,,,> 100 µM,,,,,,,,,,,,,,
Clc1ccc(COC(Cn2ccnc2)c2ccc(Cl)cc2Cl)c(Cl)c1 (configuration not stated) [MICONAZOLE],,,0.8 µM,,,,20 µM,,,,,,,,,,,,,
O=C1C2=C(SCCS2)C(=O)N1CCCN1CCN(c2ccccn2)CC1,,,> 100 µM,> 100 µM,> 100 µM,> 100 µM,> 100 µM,,,,,,,,,,,,,
CC1CCN(CC(O)CN2C(=O)C3=C(SCCS3)C2=O)CC1 (configuration not stated),,,> 100 µM,> 100 µM,> 100 µM,> 100 µM,> 100 µM,,,,,,,,,,,,,
O=C1C2=C(SCCS2)C(=O)N1CCCCN1CCN(c2ccccc2O)CC1,,,,,,> 100 µM,,,,,,,,,,,,,,
O=C1C2=C(SCCS2)C(=O)N1CC(O)CN1CCN(c2ccc(F)cc2)CC1 (configuration not stated),> 100 µM,> 100 µM,> 100 µM,> 100 µM,> 100 µM,> 100 µM,> 100 µM,> 100 µM,> 100 µM,> 100 µM,,> 100 µM,> 100 µM,> 100 µM,> 100 µM,,> 100 µM,80 µM,> 100 µM,> 1.25
O=C1C2=C(SCCS2)C(=O)N1CCCCN1CCN(c2ccc(F)cc2)CC1,21 µM,> 100 µM,> 100 µM,> 100 µM,> 100 µM,> 100 µM,> 100 µM,> 100 µM,> 100 µM,> 100 µM,,> 100 µM,> 100 µM,> 100 µM,> 100 µM,> 4.76,> 100 µM,> 100 µM,> 100 µM,
O=C1C2=C(SCCS2)C(=O)N1CCCCN1CCN(c2ccccn2)CC1,32 µM,> 100 µM,> 100 µM,> 100 µM,> 100 µM,> 100 µM,> 100 µM,> 100 µM,> 100 µM,> 100 µM,,> 100 µM,> 100 µM,> 100 µM,> 100 µM,> 3.12,> 100 µM,> 100 µM,> 100 µM,
Cc1cn([C@H]2C[C@H](N=[N+]=[N-])[C@@H](CO)O2)c(=O)[nH]c1=O [ZIDOVUDINE],,,,,,50 µM,,,,,,,,,,,,,0.01 µM,
O=C(O)c1cn(C2CC2)c2cc(N3CCNCC3)c(F)cc2c1=O [CIPROFLOXACIN],,,,0.8 µM,4 µM,,,,,,,,,,,,,,,
CCN(CC)CC(O)CN1C(=O)C2=C(SCCS2)C1=O (configuration not stated),,,> 100 µM,> 100 µM,> 100 µM,> 100 µM,> 100 µM,,,,,,,,,,,,,
O=C1C2=C(SCCS2)C(=O)N1CC(O)CN1CCN(c2ccccc2)CC1 (configuration not stated),,,> 100 µM,> 100 µM,> 100 µM,> 100 µM,> 100 µM,,,,,,,,,,,,,
O=C1C2=C(SCCS2)C(=O)N1CCCCN1CCN(Cc2ccccc2)CC1,> 100 µM,> 100 µM,> 100 µM,> 100 µM,> 100 µM,> 100 µM,> 100 µM,> 100 µM,> 100 µM,29 µM,>3.45,> 100 µM,> 100 µM,> 100 µM,> 100 µM,,> 100 µM,> 100 µM,> 100 µM,
COc1ccccc1N1CCN(CCCCN2C(=O)C3=C(SCCS3)C2=O)CC1,,,,,,> 100 µM,,,,,,,,,,,,,,
